Where “and” joins values, the source holds several entries; their conditions need not be identical. Identical values can stand only once.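 Five compound concentrations were applied to cells in 96-well plates for 48 hours; endpoints were derived by simple linear interpolation of the resulting dose-response curve. GI50: concentration for 50% inhibition of growth. TGI: concentration producing complete growth inhibition.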
Experiments:
Experiment in all cases: inhibition of tumour cell growth, NCI panel, 48 h
A549 NSCLC = tested on: A549 NSCLC
BT-549 breast = tested on: BT-549 breast
CCRF-CEM leukemia = tested on: CCRF-CEM leukemia
HCT-15 colon = tested on: HCT-15 colon
HOP-62 NSCLC = tested on: HOP-62 NSCLC
KM12 colon = tested on: KM12 colon
OVCAR-8 ovarian = tested on: OVCAR-8 ovarian
RXF 393 renal = tested on: RXF 393 renal
SF-268 CNS = tested on: SF-268 CNS
UACC-62 melanoma = tested on: UACC-62 melanoma

SMILES	GI50 (A549 NSCLC)	TGI (A549 NSCLC)	GI50 (BT-549 breast)	TGI (BT-549 breast)	GI50 (CCRF-CEM leukemia)	TGI (CCRF-CEM leukemia)	GI50 (HCT-15 colon)	TGI (HCT-15 colon)	GI50 (HOP-62 NSCLC)	TGI (HOP-62 NSCLC)	GI50 (KM12 colon)	TGI (KM12 colon)	GI50 (OVCAR-8 ovarian)	TGI (OVCAR-8 ovarian)	GI50 (RXF 393 renal)	TGI (RXF 393 renal)	GI50 (SF-268 CNS)	TGI (SF-268 CNS)	GI50 (UACC-62 melanoma)	TGI (UACC-62 melanoma)
COc1ccc2c(c1)c(=O)oc1cc(OC/C(C)=N\O)ccc12	> 100 µM	> 100 µM	49.2 µM	> 100 µM	> 100 µM	> 100 µM	> 100 µM	> 100 µM	28.7 µM	> 100 µM	> 100 µM	> 100 µM	> 100 µM	> 100 µM	56.6 µM	> 100 µM	37.7 µM	> 100 µM	75.5 µM	> 100 µM
Cc1cc2c(cc1C)N(C(=O)CCl)CC(=O)N2	8.23 µM	26.7 µM	2.64 µM	11.3 µM	2.01 µM	5.49 µM	1.74 µM	3.42 µM	3.3 µM	12 µM	8.2 µM	22.2 µM	3.01 µM	10.8 µM	2.46 µM	5.68 µM	3.47 µM	11.6 µM	3.54 µM	12.7 µM
CC1CCC(NC(=O)N(CCCl)N=O)CC1 (configuration not stated)	23.6 µM	56.5 µM and 149 µM		57.2 µM	8.11 µM	30.3 µM and 55.8 µM	20.6 µM	43.4 µM and 82.8 µM	71.2 µM	93 µM	36.6 µM	112 µM	20 µM	47.3 µM and 120 µM	16.7 µM	33.5 µM and 72.9 µM	14.9 µM	39.8 µM and 89.5 µM	7.87 µM	29.7 µM and 53.5 µM
CN(C)CCN1C(=O)c2ccccc2N(C)c2ccccc21	> 100 µM	> 100 µM	> 100 µM	> 100 µM	> 100 µM	> 100 µM	> 100 µM	> 100 µM	> 100 µM	> 100 µM	> 100 µM	> 100 µM	> 100 µM	> 100 µM	> 100 µM	> 100 µM	> 100 µM	> 100 µM	> 100 µM	> 100 µM
C=C(C)C(=O)Nc1ccc(NC(C)C)cc1	> 100 µM	> 100 µM	> 100 µM	> 100 µM	> 100 µM	> 100 µM	> 100 µM	> 100 µM	> 100 µM	> 100 µM	> 100 µM	> 100 µM	> 100 µM	> 100 µM	> 100 µM	> 100 µM	> 100 µM	> 100 µM	> 100 µM	> 100 µM
COc1ccc(C(=O)c2cc(OC)c(OC)c(OC)c2)cc1OC(=O)CCl	0.164 µM	> 100 µM	< 0.0192 µM		0.0297 µM	> 100 µM	< 0.0132 µM	> 100 µM	0.224 µM	> 100 µM	< 0.0143 µM	> 100 µM	0.052 µM	> 100 µM	0.0441 µM	> 100 µM	0.106 µM	> 100 µM	0.565 µM	> 100 µM
Cc1cccc(C)c1NC(=O)C(C#N)C1=C(Cl)C(=O)c2ccccc2C1=O (configuration not stated)		41.6 µM		28.2 µM		35.1 µM		36 µM		32.9 µM		34.5 µM		48.5 µM		> 47.8 µM		31.6 µM		33.4 µM
COc1ccc(/C(COc2ccc3c(=O)cc(-c4ccccc4)oc3c2)=N\O)cc1	20.1 µM	> 50 µM	12.9 µM	25.8 µM	> 50 µM	> 50 µM	22.8 µM	> 50 µM	26.1 µM	> 50 µM	12.5 µM	> 42.6 µM	21.4 µM	> 35.5 µM	15.8 µM	> 50 µM	11.3 µM	> 36.8 µM	10.9 µM	31.4 µM
CN(O)c1nc(N(C)O)nc(N2CCOCC2)n1	2.94 µM	> 100 µM	5.34 µM	> 100 µM	0.793 µM	> 100 µM	0.637 µM	> 100 µM	2.27 µM	> 100 µM	15.5 µM	> 100 µM	3.85 µM	> 100 µM	6.15 µM	> 100 µM	5.7 µM	> 100 µM	4.12 µM	> 100 µM
CN[C@@H](C)C(=O)N[C@H](C(=O)N1CCC[C@H]1C(=O)Nc1snnc1-c1ccccc1)C1CCCCC1	71.6 µM	> 100 µM		> 81.5 µM	32.3 µM	> 100 µM	58.3 µM	> 100 µM	26.5 µM	> 100 µM	34.4 µM	> 100 µM	13.8 µM	21.3 µM	5.18 µM	40.1 µM	> 86.1 µM	> 100 µM	16.2 µM	34.2 µM
COc1cc(C[C@H]2c3cc(OC)c(OC)cc3CCN2C)c(Oc2cc3c(cc2OC)-c2c(OC)c(OC)cc4c2[C@H](C3)N(C)CC4)cc1OC	15.6 µM	28.2 µM and 29.4 µM		13.1 µM	6.59 µM	27.6 µM and 22.6 µM	10.8 µM	26.4 µM and 23.4 µM	19.9 µM	24 µM and 35.6 µM	13.3 µM	20.4 µM and 26.7 µM	17 µM	18.5 µM and 35 µM	8.62 µM	7.35 µM and 21.3 µM	14.3 µM	31 µM and 28.4 µM	19 µM	13.4 µM and 34.2 µM
CC/C=C1/C(=O)C=C[C@@H]1C/C=C\CCCC(=O)OC	13.3 µM	29.5 µM	2.84 µM	8.15 µM	0.519 µM	10.6 µM	1.94 µM	5.31 µM	3.39 µM	11.9 µM	2.08 µM	5.06 µM	3.72 µM	14.9 µM	2.03 µM	3.9 µM	3.03 µM	13.1 µM	1.97 µM	4.6 µM
COC(=O)c1nc(-c2ccccc2)oc1S(=O)(=O)Cc1ccccc1	17.5 µM	33.6 µM	6.5 µM	19.1 µM	2.91 µM	8.41 µM	1.79 µM	3.58 µM	26.8 µM	> 100 µM	20.8 µM	39.2 µM	12.1 µM	28.2 µM	1.87 µM	3.5 µM	16.1 µM	32.8 µM	6.52 µM	20 µM
C=C1C(=O)O[C@H]2[C@H]1CC/C(COC(=O)NCc1ccc(Cn3c(=O)sn(CCCl)c3=O)cc1)=C\CC[C@@]1(C)O[C@@H]21	14.2 µM	29.1 µM	1.45 µM	2.78 µM	1.73 µM	7 µM	1.85 µM	3.82 µM	16.3 µM	31.5 µM	13.4 µM	27.7 µM	2.04 µM	4.81 µM	1.18 µM	2.64 µM	3.73 µM	14.6 µM	1.86 µM	3.95 µM
CCN(CC)CCCC(C)Nc1ccnc2cc(Oc3ccccc3)ccc12 (configuration not stated)	4.13 µM and 14.2 µM	14.8 µM and 47.6 µM	7.77 µM and 14.9 µM	21.3 µM and 30.4 µM	2.64 µM and 4.69 µM	12.8 µM and 55.6 µM	4.34 µM and 3.94 µM	28.3 µM and 20.1 µM	7.45 µM and 11.5 µM	21.7 µM and 37.4 µM	8.52 µM and 10.6 µM	24.3 µM and > 100 µM	3.62 µM and 9.15 µM	14.6 µM and 38.5 µM	1.65 µM and 3.53 µM	5.82 µM and 11.2 µM	6.48 µM and 8.36 µM	19.9 µM and 92.4 µM	4.16 µM and 3.24 µM	11.2 µM and 12.3 µM
C=C1CCC2C3(C)COC(c4ccc(N(C)C)cc4)OC3CCC2(C)C1C/C=C1/C(=O)OCC1O (configuration not stated)	4.73 µM	17.3 µM	2.95 µM	11.1 µM	1.35 µM	3.99 µM	1.91 µM	6 µM	18.4 µM	33.3 µM	2.62 µM	7.58 µM	3.78 µM	18.9 µM	1.97 µM	4.06 µM	3.78 µM	14.4 µM	4.26 µM	16.9 µM
Cc1ccc(S(=O)(=O)N/N=C/c2c(O)ccc3ccccc23)cc1		> 100 µM		59.6 µM		> 100 µM		> 100 µM		> 100 µM		44.9 µM		> 100 µM		42.4 µM		> 100 µM		49.4 µM
Cc1cc(O)c(C(C)C)cc1S(=O)(=O)O (tested in a mixture with another compound)	0.372 µM		2.26 µM	7.54 µM	0.323 µM		0.38 µM		0.442 µM		0.381 µM		0.335 µM		0.213 µM		0.797 µM		0.566 µM	
C=C(C)C(=O)O[C@H]1CC(=C)[C@@H]2C[C@H](O)[C@](O)(CCl)[C@@H]2[C@H]2OC(=O)C(=C)[C@@H]21	18.4 µM	38.2 µM	1.84 µM	3.45 µM	1.57 µM	3.71 µM	1.89 µM	4.42 µM	10.5 µM	23.3 µM	1.8 µM	3.99 µM	3.24 µM	12.8 µM	1.95 µM	3.98 µM	3.76 µM	17.4 µM	3.26 µM	11.4 µM
COc1cc(OC(=O)c2ccccc2)cc2c1C(=O)C=CC2=O		68.4 µM		29.8 µM		5.63 µM		31.4 µM		58.6 µM		38.8 µM		63.3 µM		24.6 µM		36.3 µM		28.5 µM
N#CC(NC12CC3CC(CC(C3)C1)C2)c1ccc2c(c1)OCO2 (configuration not stated)		> 100 µM		> 100 µM		> 100 µM		> 100 µM		> 100 µM		> 100 µM		> 100 µM		> 100 µM		> 100 µM		> 100 µM
COc1ccc(C2=CC(c3ccc4c(c3)OCO4)c3c(c4ccccc4oc3=O)O2)cc1OC (configuration not stated)		> 100 µM		> 100 µM		> 100 µM		> 31.6 µM		> 100 µM		> 100 µM		> 100 µM		> 100 µM		> 100 µM		> 100 µM
Cc1c(C(N)=O)sc2c1C(=O)N(Cc1ccccc1)C1=NN=C(c3ccc(Cl)cc3)CN12	3.57 µM	13.5 µM	3.66 µM	16.4 µM	1.49 µM	43.1 µM	0.688 µM	17.9 µM	3.62 µM	18.5 µM	4.07 µM	16.6 µM	2.97 µM	15.2 µM	2.16 µM	7.71 µM	2.63 µM	14.1 µM	2.23 µM	5.9 µM
CC(C)(C)OC(=O)N1CCN(CCn2cc(C(F)(F)F)c3c(Cl)ncnc32)CC1	19.3 µM	35.6 µM	1.55 µM	2.92 µM	2.85 µM	9.19 µM	1.94 µM	3.94 µM	2.19 µM	4.91 µM	16.9 µM	35.3 µM	2.06 µM	3.76 µM	3.43 µM	14.4 µM	1.82 µM	3.61 µM	2.25 µM	5.69 µM
COc1c(C)c2c(c(O)c1C/C=C(\C)CCC(=O)O)C(=O)OC2	0.239 µM	> 100 µM	0.818 µM	> 100 µM	0.0889 µM	> 100 µM	0.15 µM	> 100 µM	0.512 µM	> 100 µM	0.374 µM	> 100 µM	0.443 µM	> 100 µM	0.604 µM	> 100 µM	0.578 µM	> 100 µM	0.444 µM	> 100 µM
c1ccc2[nH]c(-c3ccc(-c4nccc5c4[nH]c4ccccc45)cc3)nc2c1	4.15 µM	18.6 µM	2.12 µM	5.42 µM	3.12 µM	9.12 µM	2.22 µM	5.61 µM	2.8 µM	10.8 µM	3.59 µM	15.7 µM	3.3 µM	13.5 µM	1.93 µM	3.53 µM	2.89 µM	10.2 µM	1.6 µM	3.49 µM
FC(F)(F)c1ccc(Nc2nc(-c3c(C(F)(F)F)nc4ccccn34)cs2)cc1	0.0625 µM	10.6 µM	0.0564 µM	4.02 µM	0.0502 µM	> 30.8 µM	0.0406 µM	5.64 µM	0.0564 µM	9.14 µM	0.0393 µM	4.23 µM	0.18 µM	7.74 µM	0.0389 µM	0.316 µM	0.0754 µM	10.7 µM	0.0385 µM	3.43 µM

— PubChem BioAssay (NCI)
